“Also recorded” adds a separate entry of the source. Where two headings read alike, the source gives them in different places.
Experiments:
Format in all cases: cell-based
[1] = molecular target: T1, human Cannabinoid Receptor 1 (CB1R) (Homo sapiens, UniProt P21554); conditions: for signaling at CB1R in terpene screen: terpenes at 100 μM, normalized to 100 μM ACEA; for maximal signaling in CB1R dose response: dose-response curves; for EC50 / EC50 at CB1R, synthetic cannabinoid dose response: syn-prepro-Δ89-CB1R, wild type ergosterol strain; for EC50: read-out: EC50 at CB1R, synthetic cannabinoid dose response; for Normalized Activity at 1 μm, CB1R: 5-fluoro PB-22 isomers; for Normalized Activity at 1 μM, CB1R: PINACA compounds; for relative fluorescence of the ACEA positive control at CB1R: compounds at 10 nM, 100 μM ACEA control
T1 construct: syn-prepro (synthetic yeast pre-pro secretion leader) (N); expressed in transfected cells; host or cells: Saccharomyces cerevisiae BY4741-derived strain (ste2, sst2, far1 knocked out); Gpa1-Gαi3 chimera

[2] = molecular target: human cannabinoid receptor type II (CB2R) (Homo sapiens, UniProt P34972); test: cell-based; set-up: Normalized Activity at 1 μM, CB2R; other: PINACA compounds, 1 μM; Normalized Activity at 1 μm, CB2R; other: 5-fluoro PB-22 isomers, 1 μm; other: MFα-CB2R, ST03 sterol strain, pH 5.8; activity against CB2R; other: at 10 nM, dose response; preference at CB2R of ADB-BINACA over AB-PINACA; signaling at CB2R in synthetic cannabinoid screen; fused on or other part: yeast mating factor alpha (MFα) pre-pro leader fused at the N-terminus as a trafficking signal; conditions: for signaling at CB2R in synthetic cannabinoid screen: compounds at 1 μM; for Normalized Activity at 1 μm, CB2R: 5-fluoro PB-22 isomers; for EC50: MFα-CB2R, ST03 sterol strain, pH 5.8; for Normalized Activity at 1 μM, CB2R: PINACA compounds
Description: (§1) To efficiently transduce signals from the human machinery to the yeast pathway, the yeast 5 C-terminal residues of the G-alpha gene GPA1 were replaced with the sequence of the Gαi3 human G-alpha variant as previously described (Brown et al. 2000). ZsGreen1 was used to report on the activity of the pathway, integrating it into the genome in place of the pheromone-inducible Fig1 gene (FIG. 14A).
(§2) Yeast colonies were picked and grown overnight to saturation in pH 5.8 SD-His media in a 2.2 mL deep well plate (Axygen) grown in a plate-shaking incubator (30° C., 1000 rpm, 3 mm orbital). In the morning cultures were diluted 1:10 or 1:25 in SD-His media buffered to pH 7.1 with 100 mM MOPSO (unless otherwise specified). Ligands were added to the culture and incubated with shaking for 8 hours. Cells were then washed three times with ice-cold Tris buffer (pH 7) and diluted 1:20 for cytometry. All cytometry was performed on a Sony SA3800 spectral analyzer. Each sample was tested for 10,000 events, and read at a rate of 1,000 events per second. All assays as reported here were filtered only for singlet populations.

[3] = tested on: human cannabinoid receptor type II (CB2R); test: cell-based; conditions: dual biosensor screen at 1 μM
Description: as §1, §2

T1 sequence (P21554 90-472): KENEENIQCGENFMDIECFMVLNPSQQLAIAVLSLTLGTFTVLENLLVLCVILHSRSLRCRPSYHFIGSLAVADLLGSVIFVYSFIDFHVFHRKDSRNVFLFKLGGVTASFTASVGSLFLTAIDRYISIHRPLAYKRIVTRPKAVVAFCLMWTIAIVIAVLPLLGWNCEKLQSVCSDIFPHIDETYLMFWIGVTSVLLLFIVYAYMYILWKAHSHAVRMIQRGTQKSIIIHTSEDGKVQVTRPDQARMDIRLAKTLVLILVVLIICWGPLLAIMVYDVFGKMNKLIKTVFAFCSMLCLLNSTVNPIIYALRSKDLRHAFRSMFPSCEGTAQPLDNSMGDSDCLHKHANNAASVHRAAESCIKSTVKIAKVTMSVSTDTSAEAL
human cannabinoid receptor type II (CB2R) (Homo sapiens, UniProt P34972), sequence (P34972 whole entry, the tested form may be a part): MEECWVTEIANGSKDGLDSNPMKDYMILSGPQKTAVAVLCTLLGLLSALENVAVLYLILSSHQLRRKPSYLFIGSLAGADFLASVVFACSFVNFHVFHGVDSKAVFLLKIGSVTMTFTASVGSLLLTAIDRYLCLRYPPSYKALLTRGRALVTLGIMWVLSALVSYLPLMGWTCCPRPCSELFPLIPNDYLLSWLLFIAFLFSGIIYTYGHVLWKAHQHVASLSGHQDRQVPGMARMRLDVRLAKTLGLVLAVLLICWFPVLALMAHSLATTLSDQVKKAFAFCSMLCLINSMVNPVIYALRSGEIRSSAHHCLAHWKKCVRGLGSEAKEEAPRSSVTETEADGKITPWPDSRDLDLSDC

## CC(C)[C@H](NC(=O)c1cn(Cc2ccccc2)c2ccccc12)C(N)=O [AB-BICA]
[1]; compounds at 1 μM
  signaling at CB1R in synthetic cannabinoid screen relative to 100 μM ACEA positive control: CB1R agonists
[2]
  signaling at CB2R in synthetic cannabinoid screen: poor CB2R signalers

## CC(C)=CCCC(C)CCO (stereo not drawn) [(+)-β-Citronellol]
[1]
  signaling at CB1R in terpene screen: activate CB1R

## CCCC(NC(=O)c1nn(Cc2ccc(F)cc2)c2ccccc12)C(N)=O (single isomer, unassigned; isomer 1) [AB-FUBINACA isomer 1]
[1]; compounds at 1 μM
  signaling at CB1R in synthetic cannabinoid screen relative to 100 μM ACEA positive control: greatest activity of all the isomers
[1]
  maximal signaling in CB1R dose response: high maximal signaling
  EC50: 0.01 nM

## O=C(Oc1ccnc2ccccc12)c1cn(CCCCCF)c2ccccc12 [drawing 16]
[1]
  Normalized Activity at 1 μm, CB1R: 0.829
[2]
  Normalized Activity at 1 μm, CB2R: 0.247

## CCC(C(N)=O)N(C)C(=O)c1nn(Cc2ccc(F)cc2)c2ccccc12 (single isomer, unassigned; isomer 5) [AB-FUBINACA isomer 5]
[1]; compounds at 1 μM
  signaling at CB1R in synthetic cannabinoid screen relative to 100 μM ACEA positive control: least GPCR activation
[1]
  maximal signaling in CB1R dose response: lower response
  EC50: 15.9 nM

## O=C(Oc1ccc2ccncc2c1)c1cn(CCCCCF)c2ccccc12
[2]
  Normalized Activity at 1 μm, CB2R: 0.339

## O=C(Oc1ccc2cnccc2c1)c1cn(CCCCCF)c2ccccc12
[2]
  Normalized Activity at 1 μm, CB2R: 0.331

## CCC(C)(NC(=O)c1nn(Cc2ccc(F)cc2)c2ccccc12)C(N)=O (single isomer, unassigned; isomer 2) [AB-FUBINACA isomer 2]
[1]
  maximal signaling in CB1R dose response: lower response
  EC50: 0.23 nM

## CCCCCn1nc(C(=O)N[C@H](C(N)=O)C(C)C)c2ccccc21 [drawing 1]
[1]
  Normalized Activity at 1 μM, CB1R: 0.550

## CC(C)[C@H](NC(=O)c1cn(CC2CCCCC2)c2ccccc12)C(N)=O [AB-CHMICA]
[1]; compounds at 1 μM
  signaling at CB1R in synthetic cannabinoid screen relative to 100 μM ACEA positive control: CB1R agonists
[2]
  signaling at CB2R in synthetic cannabinoid screen: poor CB2R signalers

## CC(C)c1c(O)ccc2c1CC[C@H]1C(C)(C)CCC[C@]21C [Totarol]
[2]; EC50 at CB2R, dose response
  EC50: 485 nM
[2]; at 10 nM, dose response
  activity against CB2R: active

## CC(C)[C@H](NC(=O)c1nn(Cc2ccc(F)cc2)c2ccccc12)C(N)=O [AB-FUBINACA]
[1]
  relative fluorescence of the ACEA positive control at CB1R: strong signaling
  maximal signaling in CB1R dose response: high maximal signaling
  EC50: 0.66 nM
[1]; compounds at 1 μM
  signaling at CB1R in synthetic cannabinoid screen relative to 100 μM ACEA positive control: maximal fluorescence

## C=C1CCC[C@]2(C)CC[C@@H](C(C)(C)O)C[C@@H]12 [β-Eudesmol]
[1]; 10 μM, dose response
  signaling at CB1R at lower concentration: showed signaling
[1]
  signaling at CB1R in terpene screen: activate CB1R

## O=C(Oc1ccc2ncccc2c1)c1cn(CCCCCF)c2ccccc12
[1]
  Normalized Activity at 1 μm, CB1R: 0.500
[2]
  Normalized Activity at 1 μm, CB2R: 0.141

## CC(C)(C)C(NC(=O)c1c2ccccc2nn1CCCCCF)C(N)=O (single isomer, unassigned; isomer 2) [5-fluoro ADB-PINACA isomer 2]
[1]
  EC50 at CB1R, synthetic cannabinoid dose response: low nanomolar range
  EC50: 2.25 nM

## CC(C)(C)C(NC(=O)c1cn(Cc2ccccc2)c2ccccc12)C(N)=O (stereo not drawn)
[1]
  Normalized Activity at 1 μM, CB1R: 0.842
[2]
  Normalized Activity at 1 μM, CB2R: 0.255

## O=C(Oc1cccc2ccncc12)c1cn(CCCCCF)c2ccccc12
[2]
  Normalized Activity at 1 μm, CB2R: 0.771

## CCCCCn1nc(C(=O)NC(C)(C(N)=O)C(C)C)c2ccccc21 (stereo not drawn)
[1]
  Normalized Activity at 1 μM, CB1R: 0.810
[2]
  Normalized Activity at 1 μM, CB2R: 0.303

## CCCCCCC(C)(C)c1cc(O)c2c(c1)OC(C)(C)[C@H]1CC=C(CO)C[C@H]21 [HU-211]
[1]
  signaling at CB1R in synthetic cannabinoid screen relative to 100 μM ACEA positive control: at most approximately half the relative fluorescence of the ACEA positive control

## O=C(Oc1cncc2ccccc12)c1cn(CCCCCF)c2ccccc12
[1]
  Normalized Activity at 1 μm, CB1R: 0.570

## CCCCCn1nc(C(=O)NC(C(N)=O)C(C)(C)C)c2ccccc21 (stereo not drawn) [drawing 2]
[1]
  Normalized Activity at 1 μM, CB1R: 0.590
[2]
  Normalized Activity at 1 μM, CB2R: 0.700

## CCC(F)CCn1cc(C(=O)C2C(C)(C)C2(C)C)c2ccccc21 (single isomer, unassigned) [XLR11 N-(3-fluoropentyl) isomer]
[3]
  receptor bias CB2R versus CB1R: CB2R-biased

## CCCCCn1nc(C(=O)N[C@H](C(N)=O)[C@@H](C)CC)c2ccccc21 (single isomer, unassigned)
[1]
  Normalized Activity at 1 μM, CB1R: 0.753
[2]
  Normalized Activity at 1 μM, CB2R: 0.568

## CCCCCn1nc(C(=O)NC(C(N)=O)C(C)(C)C)c2ccccc21 (stereo not drawn) [ADB-PINACA]
[1]
  relative fluorescence of the ACEA positive control at CB1R: strong signaling
  EC50 at CB1R, synthetic cannabinoid dose response: low nanomolar range
  EC50: 0.09 nM
[1]; compounds at 1 μM
  signaling at CB1R in synthetic cannabinoid screen relative to 100 μM ACEA positive control: maximal fluorescence
[2]
  signaling at CB2R in synthetic cannabinoid screen: high activity

## CCCCCn1cc(-c2nc(CN(CC)CC)cs2)c2ccccc21 [PTI-1]
[1]; compounds at 1 μM
  signaling at CB1R in synthetic cannabinoid screen relative to 100 μM ACEA positive control: CB1R agonists
[2]
  signaling at CB2R in synthetic cannabinoid screen: poor CB2R signalers

## CCCCCn1nc(C(=O)N[C@@H](CCCC)C(N)=O)c2ccccc21
[1]
  Normalized Activity at 1 μM, CB1R: 0.735
[2]
  Normalized Activity at 1 μM, CB2R: 0.460

## COc1ccc(C(=O)c2c(C)n(CCN3CCOCC3)c3cc(Br)ccc23)cc1 [WIN54,461]
[1]; compounds at 1 μM
  signaling at CB1R in synthetic cannabinoid screen relative to 100 μM ACEA positive control: at most approximately half the relative fluorescence of the ACEA positive control

## CCC(F)CCn1nc(C(=O)NC(C(N)=O)C(C)C)c2ccccc21 (stereo not drawn)
[1]
  Normalized Activity at 1 μM, CB1R: 0.700
[2]
  Normalized Activity at 1 μM, CB2R: 0.310

## CCCC(F)Cn1nc(C(=O)Oc2cccc3cccnc23)c2ccccc21 (stereo not drawn)
[1]
  Normalized Activity at 1 μm, CB1R: 0.531
[2]
  Normalized Activity at 1 μm, CB2R: 0.582

## CCCCCn1c(O)c(N=NC(=O)c2ccccc2)c2ccc(OC)cc21 [MDA 77]
[1]; compounds at 1 μM
  signaling at CB1R in synthetic cannabinoid screen relative to 100 μM ACEA positive control: at most approximately half the relative fluorescence of the ACEA positive control

## O=C(Oc1cnc2ccccc2c1)c1cn(CCCCCF)c2ccccc12
[1]
  Normalized Activity at 1 μm, CB1R: 0.530

## CC1(C)C(C(=O)c2cn(CCN3CCOCC3)c3ccccc23)C1(C)C [A-796260]
[2]
  signaling at CB2R in synthetic cannabinoid screen: among the top CB2R targets

## CN1CCCCC1Cn1cc(C(=O)c2cc([N+](=O)[O-])ccc2I)c2ccccc21 (stereo not drawn) [AM-1241]
[1]
  signaling at CB1R in synthetic cannabinoid screen relative to 100 μM ACEA positive control: at most approximately half the relative fluorescence of the ACEA positive control

## CCN(CC)CCN1C(=O)CN=C(c2ccccc2F)c2cc(Cl)ccc21 [Flurazepam]
[1]; compounds at 1 μM
  signaling at CB1R in synthetic cannabinoid screen relative to 100 μM ACEA positive control: did not show strong signal; also recorded: does not strongly activate the CB1R

## COCCn1c(C)c(C)s/c1=N\C(=O)C1C(C)(C)C1(C)C [A-836339, 2,2,3,3-Tetramethyl-cyclopropanecarboxylic Acid [3-(2-Methoxy-ethyl)-4,5-dimethyl-3H-thiazol-(2Z)-ylidene]-amide]
[2]; read-out: EC50 at CB2R, dose response
  EC50: 16.3 nM

## O=C(Oc1ccc2cccnc2c1)c1cn(CCCCCF)c2ccccc12
[1]
  Normalized Activity at 1 μm, CB1R: 0.550

## Cc1c(C(=O)c2ccccc2)c(N)c(-c2ccccc2)n1Cc1ccc(Cl)cc1 [URB447]
[1]; compounds at 1 μM
  signaling at CB1R in synthetic cannabinoid screen relative to 100 μM ACEA positive control: at most approximately half the relative fluorescence of the ACEA positive control

## CCCC(F)Cn1nc(C(=O)NC(C(N)=O)C(C)C)c2ccccc21 (stereo not drawn)
[1]
  Normalized Activity at 1 μM, CB1R: 0.632
[2]
  Normalized Activity at 1 μM, CB2R: 0.340

Source: patent US20250027072A1, “METHODS AND CO[…] TO ENGINEERED CANNABINOID RECEPTORS” (priority 2021, published 2025)
